Several values for one entry are separate records, joined by “and”; a condition that tells them apart may be missing. Identical values can stand only once.
Assays:
[1] = tested on: A375 cells; assay: Flow cytometry cell cycle analysis (propidium iodide); format: cell-based, human; settings: delivery agent alone as control, 14 μM; 48 h
Procedure: (§1) A375 cells at the second passage were seeded at a density of 1×10^6 cells per well in 6 well tissue culture-treated plates. Cells were incubated at 37° C. in a humidified incubator with 5% CO2 and 95% air, overnight. […] The resveratrol and sodium butyrate controls were used to calibrate the flow cytometer for cell cycle arrest in the A375 cell. All treatments were performed in triplicate wells. Cells were incubated with the formulations and controls for 48 h. All cells, floating and adherent, were collected, the triplicate wells pooled and washed in PBS. The cell populations were divided into two. Half of the cells was fixed in 70% ethanol for 2 h, washed twice in 300 μg/mL RNase A (Qiagen) in PBS. The cell pellet was resuspended in PBS and stained with propidium iodide, 20 μg/mL (Sigma). The other half of the cells was suspended in binding buffer and stained as per the Annexin V-FITC Apoptosis Detection Kit (BioVision) protocol.
(§2) Flow cytometry was performed with a FacsCalibur instrument (BD Biosciences). The treatment groups were analyzed using ModFit LT flow cytometry modeling software (Verity Software House, Inc) after gating the area of non-treated cells by excluding aggregates and debris.

[2] = Size and ζ-potential measurement of compositions (Zetasizer Nano ZS); format: physicochemical
Procedure: Due to their low solubility in water, for the in vitro testing, each drug was dissolved in dimethylsulfoxide (DMSO, Sigma) at 2 mM concentration. The drug was added at increasing concentrations of 0.01-200 μM to the supplemented media with the final DMSO concentration of 2% exposed to the cells. For the formulations, CD or CDgemini was dissolved in water (10 mM) and the drugs were dissolved in methanol (2 mM). The delivery agent to drug mole ratio was maintained at 2:1. The solvent mixture was evaporated in a rotary evaporator under vacuum and the residue was reconstituted in water. Samples were dispersed by sonication for 2 h and stored overnight at 4° C. Samples were re-sonicated, prior to diluting in supplemented media, for 15 min.
Compositions were prepared as described above. The size and ζ-potential of the particles were measured with a Zetasizer Nano ZS instrument (Malvern Instruments, UK). Results are reported as the mean of 3-5 measurements±standard deviations.

[3] = tested on: A375 cells; assay: Flow cytometry apoptosis assay (Annexin V-FITC / propidium iodide); format: cell-based, human; settings: delivery agent alone as control, 14 μM; 48 h
Procedure: as §1, with “The other half of the cells was suspended in binding buffer and stained as per the Annexin V-FITC Apoptosis Detection Kit (BioVision) protocol.” left out
as §2
The type of cell death of the A375 cells after treatment of the compositions was captured by performing the apoptosis assay (as shown in FIG. 7). […] Apoptosis was measured by dual staining of the cells with Annexin V-FITC and propidium iodide. […]

[4] = tested on: a number of cancer cells, including human SK-MEL-5 cells; settings: literature values; cited from earlier work
[5] = Transmission electron microscopy of compositions; format: physicochemical
Procedure: Drug/CDgemini conjugates prepared for the size measurements were used for TEM. Aliquots of 10 μL samples were dropped onto 300-mesh formvar-coated copper grids (SPI Supplies) and incubated for 5 min at room temperature. The water was wicked off the grids with absorbent tissue and the grids were stained with 1% phosphotungstic acid for 2 min. The stain was removed and the grids were dried at room temperature for 15 min. The samples were examined with a Philips CM10 electron microscope at an accelerating voltage of 80 kV.

Structure (SMILES)	cells in G0/G1 [1] [%]	cells in S-phase [1] [%]	formation of supramolecular aggregates [2]	apoptosis, of the total population [3] [%]	cytotoxic concentrations [4] [µM]	size of particles in TEM images [5]	Particle size Peak 1 Intensity [2] [%]	ζ potential [2]	Particle size Peak 1 ([2]; mean of 3-5 measurements ± SD) [nm]	PDI ([2]; polydispersity index)
OC[C@H]1O[C@@H]2O[C@H]3[C@H](O)[C@@H](O)[C@@H](O[C@H]4[C@H](O)[C@@H](O)[C@@H](O[C@H]5[C@H](O)[C@@H](O)[C@@H](O[C@H]6[C@H](O)[C@@H](O)[C@@H](O[C@H]7[C@H](O)[C@@H](O)[C@@H](O[C@H]8[C@H](O)[C@@H](O)[C@@H](O[C@H]1[C@H](O)[C@H]2O)O[C@@H]8CO)O[C@@H]7CO)O[C@@H]6CO)O[C@@H]5CO)O[C@@H]4CO)O[C@@H]3CO [CD, β-Cyclodextrin, reference compound]	56	43	neither CD nor drug/CD conjugates formed supramolecular aggregates	25						
N[C@@H](Cc1ccc(N(CCCl)CCCl)cc1)C(=O)O [melphalan]					52 to 219					
CCCCCCCCCCCC[N+](C)(C)CCCN(CCC[N+](C)(C)CCCCCCCCCCCC)C(=O)CCC(=O)OCC1OC2OC3C(CO)OC(OC4C(CO)OC(OC5C(CO)OC(OC6C(CO)OC(OC7C(CO)OC(OC8C(CO)OC(OC1C(O)C2O)C(O)C8O)C(O)C7O)C(O)C6O)C(O)C5O)C(O)C4O)C(O)C3O.[Cl-].[Cl-] (stereo not drawn) [CDgemini, [mono-6-o-(3{bis(3-(N-dodecyl-N,N-dimethylamino)-propyl)-carbamoyl}propanoyl)-beta-cyclodextrin]^2+]	65	35		31		100-150 nm	100	5.74±0.53 mV and 5.7 ± 0.5 mV	153.6±4.3	0.2

Reference: US9168306B2, “Drug delivery agents comprising cyclodextrin covalently linked to a gemini surfactant, and pharmaceutical compositions comprising the same” (University of Saskatchewan, priority 2011, dated 2015)
